In ChEMBL document CHEMBL1127167, “Synthesis and in vitro acetylcholinesterase inhibitory activity of some 1-substituted analogues of velnacrine” (Bioorg Med Chem Lett, 1993) one finds IC50 data, which are given here for 26 compounds.

What is called IC50 is the point on the concentration scale where inhibition reaches its midpoint.

The assay addresses T1, Acetylcholinesterase (Rattus norvegicus, UniProt P37136).
T1 sequence (P37136 whole entry): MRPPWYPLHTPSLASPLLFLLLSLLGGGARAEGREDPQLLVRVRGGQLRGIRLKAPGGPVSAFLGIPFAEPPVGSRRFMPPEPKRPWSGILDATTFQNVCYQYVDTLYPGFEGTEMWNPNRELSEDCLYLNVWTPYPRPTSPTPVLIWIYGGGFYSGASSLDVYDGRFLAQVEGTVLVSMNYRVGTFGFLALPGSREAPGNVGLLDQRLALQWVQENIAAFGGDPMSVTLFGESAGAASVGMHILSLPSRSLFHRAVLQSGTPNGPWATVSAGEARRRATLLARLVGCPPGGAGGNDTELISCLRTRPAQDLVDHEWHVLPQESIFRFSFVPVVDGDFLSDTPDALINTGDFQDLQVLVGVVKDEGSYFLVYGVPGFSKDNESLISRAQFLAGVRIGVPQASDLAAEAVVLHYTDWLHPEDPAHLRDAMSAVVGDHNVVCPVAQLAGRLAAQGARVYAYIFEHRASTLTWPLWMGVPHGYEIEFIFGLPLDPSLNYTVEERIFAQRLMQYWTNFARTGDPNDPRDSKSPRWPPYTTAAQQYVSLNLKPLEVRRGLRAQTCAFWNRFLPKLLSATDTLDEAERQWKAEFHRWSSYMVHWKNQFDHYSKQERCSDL
The experiment in a line: Inhibition of acetylcholinesterase from rat striatal tissue. In kind it is tissue-based, Striatum.
In turn, `CCCCCC(=O)NC1CCCc2nc3ccccc3c(N)c21` (stereo unspecified) came in with an IC50 of 51.8 µM.

In turn, `Nc1c2c(nc3ccccc13)CCCC2N1CCC(c2ccccc2)CC1` (stereo unspecified) displayed an IC50 of more than 100 µM.

As for `CCCNC1CCCc2nc3ccccc3c(N)c21` (stereo unspecified), it took 12.5 µM to reach half-maximal inhibition (IC50).

The compound `Nc1c2c(nc3ccccc13)CCCC2O` (stereo unspecified) [VELNACRINE] yielded an IC50 of 3.64 µM.

`Nc1c2c(nc3ccccc13)CCCC2N` (stereo unspecified) displayed an IC50 of 8.59 µM.

On to `CCNC1CCCc2nc3ccccc3c(N)c21` (stereo unspecified), for which the IC50 was 4.79 µM.

In turn, `Nc1c2c(nc3ccccc13)CCCC2NCc1ccccc1` (stereo unspecified) gave an IC50 of 20.1 µM.

`Nc1c2c(nc3ccccc13)CCCC2Nn1cccc1` (stereo unspecified) showed an IC50 of 8.16 µM.

`COC1CCCc2nc3ccccc3c(N)c21` (stereo unspecified): the IC50 is 4.74 µM.

As to `CCCCOC1CCCc2nc3ccccc3c(N)c21` (stereo unspecified), the IC50 stood at 1.9 µM.

For the compound `Nc1c2c(nc3ccccc13)CCCC2c1cccs1` (stereo unspecified), the IC50 was 0.49 µM.

The compound `Nc1c2c(nc3ccccc13)CCCC2N1CCCCC1` (stereo unspecified) returned an IC50 of 8.4 µM.

`CCOC1CCCc2nc3ccccc3c(N)c21` (stereo unspecified) came in with an IC50 of 0.298 µM.

Regarding `CCCOC1CCCc2nc3ccccc3c(N)c21` (stereo unspecified), the IC50 came out at 0.193 µM.

Take `CCCCNC1CCCc2nc3ccccc3c(N)c21` (stereo unspecified): half-maximal inhibition (IC50) required 48.8 µM.

Regarding `CN1CCN(C2CCCc3nc4ccccc4c(N)c32)CC1` (stereo unspecified), the IC50 is more than 100 µM.

Turning to `CC1=NC2CCCc3nc4ccccc4c(c32)N1` (stereo unspecified), the IC50 is more than 100 µM.

Regarding `COc1ccc(CNC2CCCc3nc4ccccc4c(N)c32)cc1OC` (stereo unspecified), the IC50 came out at 38.4 µM.

For `COc1ccc(C2CCCc3nc4ccccc4c(N)c32)c(OC)c1` (stereo unspecified), the IC50 stood at 4.82 µM.

In the case of `CC(=O)NC1CCCc2nc3ccccc3c(N)c21` (stereo unspecified), inhibition was half-maximal at 64.9 µM (IC50).

For the compound `[N-]=[N+]=NC1CCCc2nc3ccccc3c(N)c21` (stereo unspecified), the IC50 worked out at 11.8 µM.

On to `Nc1c2c(nc3ccccc13)CCCC2N1CCN(c2ccccc2)CC1` (stereo unspecified), for which the IC50 was more than 100 µM.

`Nc1c2c(nc3ccccc13)CCCC2NCCc1ccccc1` (stereo unspecified): inhibition was half-maximal at 18.6 µM (IC50).

`Nc1c2c(nc3ccccc13)CCCC2N1CCOCC1` (stereo unspecified) came in with an IC50 of more than 100 µM.

`c1ccc(C2=NC3CCCc4nc5ccccc5c(c43)N2)cc1` (stereo unspecified) yielded an IC50 of more than 100 µM.

For the compound `Nc1c2c(nc3ccccc13)CCCC2N1CCCC1` (stereo unspecified), the IC50 turned out to be 18 µM.
